{
  "source": "patent US8784910B2",
  "about": "“Antimicrobial compositions” (Lonza Inc., priority 2002, dated 2014)",
  "format_in_all_cases": "cell-based",
  "key": {"[1]": {"system": "S. aureus, P. aeruginosa, and E. coli", "assay": "Mixed bacterial challenge of preserved GMS cream (Example 6)", "description": "Each anionic shampoo sample in FIGS. 1-3 were tested as follows. […] Each stab was then washed with 3 mL of sterile 0.85% saline solution. The washes of the 3 stabs were pooled together to form an organism mixture. The absorbance of the organism mixture at 530 nm was adjusted to about 1.00 by adding saline. The spectrometer was calibrated with a saline blank. A 5 mL aliquot of the organism mixture was mixed together to produce the standardized mixed bacterial solution. Then, 40 g of each shampoo sample was inoculated with 0.2 mL of the standardized mixed bacterial solution and mixed. 1 g of the mixture was added to a sterile 20×150 mm screw cap test tube. 9 mL of sterile D/E neutralizer broth was added to the test tube and mixed to form a 10^−1 dilution. Serial dilutions were prepared through to a 10^−6 dilution with phosphate buffered water. The serial dilutions were plated onto Tryptic Soy Agar and incubated for 2 days at about 35 EC. Bacteria counts were performed after 21 days. Each cream sample in Table 5 below was tested by the procedure described in Example 1. A glyceryl monostearate (GMS) cream as described in Table 3 below was prepared as follows. The polyoxyethylene glyceryl monostearate, glyceryl monostearate, cetearyl alcohol, and myristyl propionate were mixed and heated to 60 EC in a first container. The glycerin and sterile deionized water were mixed and heated to 60 EC in a second container. The solution in the first container was poured into the second container. The second container was maintained at 60 EC for 10 minutes. The solution in the second container was allowed to cool. The pH of the solution was adjusted to pH 7 with sodium hydroxide to yield the GMS cream. The cream samples shown in Table 6 below were prepared by mixing the appropriate amounts of the preservatives and the GMS cream and heating the mixture to 50 EC for 10-15 minutes."}, "[2]": {"system": "S. aureus (ATCC #6538), P. aeruginosa (ATCC #9027), and E. coli (ATCC #8739)", "assay": "Mixed bacterial challenge of preserved anionic protein shampoo (Examples 4 and 7)", "conditions": "for Qb: concentration alone required for 100% retardation of the bacteria", "description": "Each anionic shampoo sample in Table 3 below was tested as follows. A standardized mixed bacterial solution was prepared according to the following procedure. 3 agar stabs of S. aureus (ATCC #6538), P. aeruginosa (ATCC #9027), and E. coli (ATCC #8739) were separately incubated at about 35 EC for about 24 hours. Each stab was then washed with 3 mL of sterile 0.85% saline solution. The washes of the 3 stabs were pooled together to form an organism mixture. The absorbance of the organism mixture at 530 nm was adjusted to about 1.00 by adding saline. The spectrometer was calibrated with a saline blank. A 5 mL aliquot of the organism mixture was mixed together to produce the standardized mixed bacterial solution. Then, 40 g of each shampoo sample was inoculated with 0.2 mL of the standardized mixed bacterial solution and mixed. 1 g of the mixture was added to a sterile 20×150 mm screw cap test tube.\n9 mL of sterile D/E neutralizer broth was added to the test tube and mixed to form a 10^−1 dilution. Serial dilutions were prepared through to a 10^−6 dilution with phosphate buffered water. The serial dilutions were plated onto Tryptic Soy Agar and incubated for 2 days at about 35 EC. Bacteria counts were performed after 0, 7, and 14 days.\nThe anionic protein shampoo composition was comprised of 35% by weight of sodium lauryl ether sulfate; 25% by weight of triethanolamine lauryl sulfate; 3% by weight coconut diethanolamide (cocamide DEA); 1% by weight of hydrolyzed collagen, available as Polypro 5000™ from Hormel Foods of Austin, Minn.; and 36% by weight of deionized water.\nThe cinnamaldehyde and other preservative containing samples were prepared by mixing the appropriate amounts of the preservatives and the aforementioned anionic protein shampoo composition and heating the mixture to about 50 EC for about 15 minutes.\nSynergism for the cinnamaldehyde/Glydant 2000™ solutions in Table 8 against S. aureus, P. aeruginosa, and E. coli was calculated by the method described in C. E. Kull et al., A Mixtures of Quaternary Ammonium Compounds and Long-chain Fatty Acids as Antifungal Agents@, Applied Microbiology, 9:538-541 (1961). The synergism value (QA/Qa+QB/Qb) in Table 7 was determined. […] Qa is the concentration of cinnamaldehyde alone (in percent by weight) required to yield 100% retardation of the bacteria. QB is the concentration of Glydant 2000™ (in percent by weight) in the mixture, which yielded 100% retardation of the bacteria. Qb is the concentration of Glydant 2000™ alone (in percent by weight) required to yield 100% retardation of the bacteria.\nWhen the value of (QA/Qa+QB/Qb) is less than one, the mixture is synergistic. Values for (QA/Qa+QB/Qb) of 1 and greater than 1, represent an additive effect and an antagonistic effect, respectively."}, "[3]": {"system": "Staphylococcus aureus (ATCC #6538)", "assay": "Minimum Inhibitory Concentration (MIC), autodilutor, nutrient broth, 96 well plates (Example 8)", "conditions": "Staphylococcus aureus, ATCC6538; 72 hours at 32 degree Celsius, approximately 10^6 cfu/g, visual turbidity; read-out: MIC for S. Aureus", "description": "The Minimum Inhibitory Concentration (MIC) of the preservative mixtures was tested. The MIC is the lowest concentration of an ingredient that will inhibit the growth of an organism. This study was conducted using the Hamilton Micro Lab AT Plus Autodilutor Liquid handling System. The programs for the auto-dilutor were based on Lonza's Standard Application Method SAPM#412-01-1. The Hamilton Autodilutor was used to dilute the starting concentrations of the preservative combination by 50% using nutrient broth in 96 well micro titer plates and also to inoculate the microorganism in the test samples. This preservatives tested were Isocil™ (a blend of methyl isothiazolinone and methyl-chloro-isothiazolinone), Benzocil™ (benzisothiazolinone) and Lonzagard™ (benzethonium chloride), all of which are available from Lonza Inc. of Fair Lawn, N.J., in various concentrations and combinations with cinnamaldehyde. Controls were also included in each test plate. […] Results were determined by checking for growth in the test samples versus the control wells on each plate (visual determination of turbidity in the wells). […] Synergism values for the Isocil™/cinnamaldehyde and Benzocil™/cinnamaldehyde combinations were calculated from the MIC values reported in Table 11 by the method described in Kull, supra, referred to above, and are set forth in Tables 12 and 13, below."}},
  "data": [
    {"smiles": "O=CC=Cc1ccccc1", "note": "[Cinnamaldehyde, cinnamaldehyde]", "values": [
      {"measurement": "S. aureus, P. aeruginosa, and E. coli Day 0", "setting": "[1]; 0.10% in GMS cream pH 7, Day 0", "result": "3.0 × 10^7 cfu/g"},
      {"measurement": "S. aureus, P. aeruginosa, and E. coli Day 7", "setting": "[1]; 0.10% in GMS cream pH 7, Day 7", "result": "4.0 × 10^4 cfu/g"},
      {"measurement": "S. aureus, P. aeruginosa, and E. coli Day 14", "setting": "[1]; 0.10% in GMS cream pH 7, Day 14", "result": "9.3 × 10^5 cfu/g"},
      {"measurement": "S. aureus, P. aeruginosa, and E. coli Day 0", "setting": "[1]; 0.25% in GMS cream pH 7, Day 0", "result": "3.0 × 10^7 cfu/g"},
      {"measurement": "S. aureus, P. aeruginosa, and E. coli Day 7", "setting": "[1]; 0.25% in GMS cream pH 7, Day 7", "result": "<10", "unit": "cfu/g"},
      {"measurement": "S. aureus, P. aeruginosa, and E. coli Day 14", "setting": "[1]; 0.25% in GMS cream pH 7, Day 14", "result": "<10", "unit": "cfu/g"},
      {"measurement": "S. aureus, P. aeruginosa, and E. coli Day 0", "setting": "[2]; 0.05% in shampoo, Day 0, Example 7 Table 8", "result": "3.0 × 10^6 cfu/g"},
      {"measurement": "S. aureus, P. aeruginosa, and E. coli Day 7", "setting": "[2]; 0.05% in shampoo, Day 7, Example 7 Table 8", "result": "6.5 × 10^6 cfu/g"},
      {"measurement": "S. aureus, P. aeruginosa, and E. coli Day 14", "setting": "[2]; 0.05% in shampoo, Day 14, Example 7 Table 8", "result": "1.0 × 10^7 cfu/g"},
      {"measurement": "S. aureus, P. aeruginosa, and E. coli Day 0", "setting": "[2]; 0.10% by weight in shampoo, Day 0, Table 3", "result": "3.0 × 10^7 cfu/g"},
      {"measurement": "S. aureus, P. aeruginosa, and E. coli Day 7", "setting": "[2]; 0.10% by weight in shampoo, Day 7, Table 3", "result": "1.0 × 10^1 cfu/g"},
      {"measurement": "S. aureus, P. aeruginosa, and E. coli Day 14", "setting": "[2]; 0.10% by weight in shampoo, Day 14, Table 3", "result": "<10", "unit": "cfu/g"},
      {"measurement": "S. aureus, P. aeruginosa, and E. coli Day 0", "setting": "[2]; 0.10% in shampoo, Day 0, Example 7 Table 8", "result": "3.0 × 10^6 cfu/g"},
      {"measurement": "S. aureus, P. aeruginosa, and E. coli Day 7", "setting": "[2]; 0.10% in shampoo, Day 7, Example 7 Table 8", "result": "1.0 × 10^1 cfu/g"},
      {"measurement": "S. aureus, P. aeruginosa, and E. coli Day 14", "setting": "[2]; 0.10% in shampoo, Day 14, Example 7 Table 8", "result": "<10", "unit": "cfu/g"},
      {"measurement": "S. aureus, P. aeruginosa, and E. coli Day 0", "setting": "[2]; 0.20% by weight in shampoo, Day 0, Table 3", "result": "3.0 × 10^7 cfu/g"},
      {"measurement": "S. aureus, P. aeruginosa, and E. coli Day 7", "setting": "[2]; 0.20% by weight in shampoo, Day 7, Table 3", "result": "<10", "unit": "cfu/g"},
      {"measurement": "S. aureus, P. aeruginosa, and E. coli Day 14", "setting": "[2]; 0.20% by weight in shampoo, Day 14, Table 3", "result": "<10", "unit": "cfu/g"},
      {"measurement": "S. aureus, P. aeruginosa, and E. coli Day 0", "setting": "[2]; 0.25% by weight in shampoo, Day 0, Table 3", "result": "3.0 × 10^7 cfu/g"},
      {"measurement": "S. aureus, P. aeruginosa, and E. coli Day 7", "setting": "[2]; 0.25% by weight in shampoo, Day 7, Table 3", "result": "<10", "unit": "cfu/g"},
      {"measurement": "S. aureus, P. aeruginosa, and E. coli Day 14", "setting": "[2]; 0.25% by weight in shampoo, Day 14, Table 3", "result": "<10", "unit": "cfu/g"},
      {"measurement": "Qb", "setting": "[2]; For Day 7", "result": 0.1, "unit": "%"},
      {"measurement": "Qb", "setting": "[2]; For Day 14", "result": 0.05, "unit": "%"},
      {"measurement": "MIC", "setting": "[3]", "result": 125, "unit": "µg/mL"}
    ]}
  ]
}
